# Several values for one entry are separate records, joined by “and”; a condition that tells them apart may be missing. Equal values may be shown once. Activity calls are given as the source filed them.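 The calls were made as follows: active = compounds giving half or more protection of infected cells from virus-caused growth loss, again on retest; inactive = the rest.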
# System: CEM cells HIV-1 protection, formazan growth assay
# Test: NCI AIDS Antiviral Assay
# Settings: for IC50: measured here: growth of uninfected CEM cells
# Method in brief: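 Human CEM cells, uninfected and HIV-1-infected, received five drug concentrations, and growth was read by soluble formazan assay. Compounds giving at least 50% protection were retested; reproducible 100% protection defined confirmed active.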
SMILES,EC50 [µM],IC50,outcome
COc1cc(/C=C2\C(=O)N(c3cccc(Cl)c3)C(c3ccccc3)S2(=O)=O)cc(OC)c1OC (stereo unspecified),> 200,112 µM,
CC(=O)Nc1ccccc1S(=O)(=O)c1ccccc1,302,324 µM,
C/C(=N\N=C(/[Se])N1CCCCCC1)c1ccccn1,> 81.3,0.107 µM,
C[C@]12CCC(=O)C(O)=C1CC[C@@H]1C2CC[C@]2(C)NC(=O)CCC12 (stereo partly specified),> 40.7,> 40.7 µM,
Cc1ccc(N2C(=O)C3c4[nH]c5ccccc5c4C4CCC(C(C)(C)C)CC4C3C2=O)cc1 (stereo unspecified),> 200,35.5 µM,
Cn1c(N)c(/C=N/NC(=O)CC#N)c(=O)n(C)c1=O,> 200,> 200 µM,
c1ccc(-c2nnc(-c3nsc4ccccc34)o2)cc1,> 18.6,> 18.6 µM,
O=C1CC(c2ccccc2)Oc2cc(O)cc(O)c21 (stereo unspecified),> 200,34.7 µM and > 200 µM and 55 µM,
Cc1cc(=O)oc2ccccc12,> 813,> 813 µM,
NC(=S)NNCC(=O)CC(O)(C(F)(F)F)C(F)(F)Cl (stereo unspecified),> 200,123 µM,
O=C(O)C(SSC(C(=O)O)(c1ccccc1)c1ccccc1)(c1ccccc1)c1ccccc1,> 200,89.1 µM,
COC(=O)C1(Cc2ccccc2)Cc2ccccc2C1=O (stereo unspecified),> 200,85.1 µM,
O=C1c2ccccc2S(=O)(=O)N1Sc1ccccc1[N+](=O)[O-],> 200,17 µM,
N#Cc1ncn(-c2ccccc2)c1N,> 200,> 200 µM,
CC(C)C(NCc1c2ccccc2[n+](C)c2ccccc12)C(=O)O (stereo unspecified),,,inactive
Cc1cc(C(O)CCCc2ccccc2)cc(C)c1O (stereo unspecified),> 251,83.2 µM,
N#Cc1c(C#N)c(-c2ccccc2)n(-c2ccccc2)c1N,> 200,53.7 µM,
CCOC(=O)c1cc(-c2ccc(-c3cc(C(=O)OCC)c(C#N)c(N)c3C#N)cc2)c(C#N)c(N)c1C#N,> 26.9,> 26.9 µM,
Nc1nc(NC2CC2)c2ncn(C3C=CC(CO)CC3)c2n1 (stereo unspecified),> 200,> 200 µM,
C/C(CC(=O)Nc1ccc(Cl)c(Cl)c1)=N/NC(=O)C[N+](C)(C)C,> 34.7,> 34.7 µM,
NS(=O)(=O)c1ccc(NC(=O)Nc2cc(C(F)(F)F)ccc2Cl)cc1,> 200,10.2 µM,
CCOC(=O)C1C(=O)CC(C)(O)C(C(=O)OCC)C1c1ccc(N(C)C)cc1 (stereo unspecified),> 200,> 200 µM,

SMILES,EC50 [µM],IC50,outcome
COC(=O)Cc1c2n(c3ccccc13)C(=O)N1c3ccccc3C(CC(=O)OC)C21 (stereo unspecified),> 200,> 200 µM,
Cc1ccc(C(=O)/C=C2/SS/C(=C/C(=O)c3ccc(C)cc3)S2)cc1,> 200,> 200 µM,
C=CN1C(=O)OC(c2ccccc2)C1c1ccccc1 (stereo unspecified),> 93.3,> 79.4 µM and 30.2 µM,
N#CC(C#N)SCc1ccccc1,,,inactive
CCOC(=O)C(OCC1CC=CCC1)Sc1ccccc1 (stereo unspecified),> 23.4,> 23.4 µM,
C/C(=N/OC(=O)N(C)C)c1ccccc1,> 200,> 200 µM,
CC(=O)N/C(=C\c1ccc(/C=C(\NC(C)=O)C2=NC3C(=O)c4ccccc4C(=O)C3N2)cc1)C1=NC2C(=O)c3ccccc3C(=O)C2N1 (stereo unspecified),,,inactive
CCCCNC(=O)Sc1ccccc1C(=O)NCCS(N)(=O)=O,0.141,50.1 µM,
CC(=O)CC(=O)CCC(=O)Nc1cccc(C(F)(F)F)c1,,,inactive
Cc1cn(C2CC(SCCO)C(CO)O2)c(=O)[nH]c1=O (stereo unspecified),> 200,> 200 µM,
Cc1c(C)c(C)c(Cn2[nH]c(=O)n(C)c2=O)c(C)c1C,> 200,> 200 µM,
Cc1cc(=O)c2c(o1)C(=O)c1occc1C2=O,,,inactive
CN(C)c1nc2oc(-c3ccccc3)c(-c3ccccc3)c2c2nncn12,> 151,> 151 µM,
CS(=O)(=O)OCC1OS(=O)OC1COS(C)(=O)=O (stereo unspecified),> 200,4.9 µM,
CN1C(=O)/C(=N\n2c(-c3ccccc3)nc3ccccc3c2=O)c2ccccc21,> 200,> 200 µM,
COc1ccc2[nH]c3c(C)c4ccnc(NCCCN(C)CCCNc5ccc6ncn7c8ccccc8c(=O)c5c67)c4c(C)c3c2c1,> 0.0251,0.00794 µM,
OC1C#CCSCC#C/C=C\1 (stereo unspecified),> 200,10.5 µM,
c1ccc2c(c1)nc1nc3c(cn12)CCCC3,> 151,> 151 µM,
O=C1O[C@@H](c2ccccc2)C[C@@H]1CN1CCOCC1,,,inactive
O=c1c2ccccc2[nH]c(=S)n1-c1cccc(C(F)(F)F)c1,> 200,> 200 µM,
Cc1ccc(S(=O)(=O)S/C(=N\c2ccccn2)Nc2ccccn2)cc1,> 324,83.2 µM,
COC(=O)N1CC[C@@H]2CCC=C(c3cccc4c3OCO4)[C@@H]21,,,inactive

SMILES,EC50 [µM],IC50,outcome
COc1ccc(OC)c2c3c([nH]c12)C(=O)Nc1nc(N)nc(N)c1C3,> 20,1 µM,
NS(=O)(=O)c1ccc(NC(=O)c2cccn3c(=O)c4ccccc4nc23)cc1,,,inactive
Cn1c(=O)c2c3ccccc3c(C(=O)c3ccccc3)n2c2ccccc21,> 51.3,3.09 µM,
COc1ccc2c(c1)C/C(=C\c1cccc3ccccc13)C2=O,> 200,51.3 µM,
Nc1nc2ccc(Sc3ccc4nc(N)[nH]c(=O)c4c3)cc2c(=O)[nH]1,> 100,> 100 µM,
CN(Cc1c(S)ccc2ccccc12)Cc1c(S)ccc2ccccc12,> 100,17 µM,
COC(=O)c1ccc[c]([Sb](=[O])([OH])[OH])c1,> 200,91.2 µM,
O=CN/C=C\c1cc(O)ccc1O,> 427,5.25 µM,
COC(=O)C(Cn1cnc2c(N)ncnc21)P(=O)(OC)OC (stereo unspecified),> 759,39.8 µM,
COc1ccc(-n2sc3ncc([N+](=O)[O-])cc3c2=O)cc1,9.33,> 200 µM,
c1ccc([P+](CCC[P+](c2ccccc2)(c2ccccc2)c2ccccc2)(c2ccccc2)c2ccccc2)cc1,> 200,135 µM,inactive
C#CC1(O)CCC2[C@@H]3CCc4cc(Oc5nc(F)nc(-c6c7ccccc7cn6C)n5)ccc4C3CC[C@@]21C (stereo partly specified),> 10,> 10 µM,
O=c1cnc2c(ccc3ccccc32)[nH]1,> 182,> 182 µM,
CCCCOC(=O)/C(CC(=O)C=C(C)C)=N\NS(=O)(=O)c1ccc(C)cc1,> 174,> 174 µM,
O=C(OCc1ccccc1)N(Cc1ccccc1)S(=O)(=O)c1ccccc1,> 200,> 200 µM,
COc1ccc(N2C(=O)CC(=O)N(C(=O)COc3ccc(OCC(=O)N4C(=O)CC(=O)N(c5ccc(OC)cc5)C4=S)cc3)C2=S)cc1,> 200,50.1 µM,
Cn1cc(N)cc1C(=O)Nc1cc(C(=O)Nc2ccc3cc(S(=O)(=O)O)cc(S(=O)(=O)O)c3c2)n(C)c1,36.3,316 µM,
CC[C@](O)(C(=O)O)c1cc2n(c(=O)c1CO)Cc1cc3ccccc3nc1-2,> 0.1,0.012 µM,
CCCCNC(=O)c1cc(S(=O)(=O)n2cc[nH]c2=O)c(SC)cc1Cl,> 200,> 200 µM,
O=S1(=O)c2ccccc2C(c2ccccc2)(c2ccccc2)N1c1ccccc1,> 75.9,55 µM,
Cc1ccc(C(=O)Nc2ccc(S(=O)(=O)[O-])c3cc(S(=O)(=O)[O-])cc(S(=O)(=O)[O-])c23)cc1NC(=O)c1cccc(NC(=O)Nc2cccc(C(=O)Nc3cc(C(=O)Nc4ccc(S(=O)(=O)[O-])c5cc(S(=O)(=O)[O-])cc(S(=O)(=O)[O-])c45)ccc3C)c2)c1.[Ga],> 759,42.7 µM,
COc1ccc2c(c1)C(=O)/C(=C/c1ccccc1)C2,> 200,47.9 µM,

SMILES,EC50 [µM],IC50,outcome
CCOC(=O)c1cc2c3c(c(O)c(OC)c2s1)N(C(=O)c1cc2c4c(c(OC)c(OC)c2s1)N(C(=O)OC(C)(C)C(Cl)(Cl)Cl)CC4)CC3,,,inactive
CC(=O)OC1[C@@H](OC(C)=O)[C@H](OC(C)=O)C2(CO2)[C@H](OC(C)=O)[C@H]1OC(C)=O (stereo partly specified),> 200,12.3 µM,
CC(O)CNC1=CC(=O)C(=O)c2ccccc21 (stereo unspecified),> 200,28.8 µM,
Cc1cccc(NC(=O)Nc2ccccc2)n1,> 200,97.7 µM,
CCCCCCCCCCCc1c2oc3ccc(C)cc3[nH]c-2cc(=O)c1=O,> 4.68,> 4.68 µM,
O=C(CSc1nnc(-c2ccc(N=Cc3ccc(Cl)cc3)cc2)o1)Nc1ccccc1Cl,> 269,> 269 µM,
C=CCN(N=O)C(=O)N(CCC)CCCCC(NC(C)=O)C(=O)NCc1ccccc1 (stereo unspecified),,,inactive
O=C(c1ccccc1)c1ccsc1C(=O)c1ccccc1,> 200,36.3 µM,
O=S(=O)(CC#CCO)c1ccc2ccccc2c1,,,inactive
CC(CN(C)C)OC(=O)c1cc2ccccc2[nH]1 (stereo unspecified),> 200,> 200 µM,
CC(C)=CC1CCc2ccccc2N1S(=O)(=O)c1ccc(C)cc1 (stereo unspecified),> 25.1,1.32 µM,
COc1ccc(N2NC(c3ccccc3)(c3ccccc3)C(C)C2=O)cc1 (stereo unspecified),> 200,11 µM,
COC(=O)c1ccccc1/C=C1\Cc2cc(C)c(C)cc2C1=O,> 100,> 100 µM,
O=[N+]([O-])c1ccc2[nH]c(=S)n(/C=C(/c3ccccc3)S(=O)Cc3ccccc3)c2c1 (stereo unspecified),> 200,> 200 µM,
CC(NCc1c(O)ccc2c(-c3ccccc3)cc(=O)oc12)C(=O)O (stereo unspecified),> 200,> 200 µM,
CN1CN(c2ccccc2)C2(CCN(CCCCCCF)CC2)C1=O,> 200,107 µM,
c1ccc(N=C2c3ccsc3C(=Nc3ccccc3)c3ccsc32)cc1,> 200,2.51 µM,
CN(C)Cc1c[nH]c2nc[nH]c(=O)c12,> 200,25.7 µM,
CCOC(=O)CC1NC(=O)CS1 (stereo unspecified),> 138,> 138 µM,
Cc1cc(-c2ccc(C(=O)C(Cl)(Cl)Cl)[nH]2)on1,> 200,17.8 µM,
CCOC(=O)c1c(N)ssc1=S,87.1,158 µM,
COc1c2cc(C(C)(C)C)cc1CSCc1cc(C(C)(C)C)cc(c1OC)CCCCC2,> 200,> 200 µM,
